Measurements published in PMC12612973, “Inhibition of Human Amylin Aggregation: In Silico and In Vitro Studies” (ACS Omega, 2025).
Read-outs that look alike come from different tables or passages of the source.

What was measured:
human amylin (hIAPP) [1] = biological target: T1, human amylin (hIAPP) (Homo sapiens, UniProt P10997); assay: Fluorescence quenching of amylin: Stern-Volmer, binding and thermodynamic analysis; conditions: for quenching of amylin's intrinsic fluorescence: compound 0 to 20 μM, excitation 275 nm; for Kd: read-out: K b (binding constant) (converted); for ΔH / ΔS: Van't Hoff plot, 25/30/37 °C
T1 construct: purchased Bachem USA
T1 sequence (P10997 34-70 limits assumed): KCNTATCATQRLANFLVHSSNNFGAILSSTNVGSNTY
Procedure: The fluorescence emission scans (wavelengths 290 to 500 nm) of 10-fold diluted amylin samples were acquired with a PerkinElmer model LS 55. The excitation wavelength was set at 275 nm to observe the fluorescence of the tyrosine residue exclusively. The integrated spectrum from 290 to 450 nm was used to obtain the relative fluorescence values of Tyr. Fluorescence measurements were performed in 1 cm light-path quartz cuvettes, with both excitation and emission bandwidths set to 5 nm. Sample fluorescence was determined by subtracting the fluorescence of the buffer. Each experiment was performed in duplicate. ,
Quenching titrations with acrylamide were carried out by adding varying amounts of a quencher stock solution (5 M) to the protein solution (∼15 μM diluted 10-fold). , The excitation wavelength was set at 275 nm, and the fluorescence emission spectra were scanned from 275 to 500 nm using a PerkinElmer model LS 55. The emission and excitation slits were set to 5 and 10 nm, respectively, and a 1 cm cuvette was used for all experiments. According to the Stern–Volmer equation, the integration area between 290 and 450 nm was used for data analysis. , Before analyzing the quenching data, the fluorescence emission spectra were corrected for volume changes, scattering effects, and the inner filter effect due to acrylamide absorption. , Each experiment was performed in duplicate. The quenching mechanism analysis by the Stern–Volmer equation was calculated according to eq . F 0 is the fluorescence intensity without the quencher, and F is the intensity with a quencher. K sv is the Stern–Volmer quenching constant, while Q is the quencher concentration. K q is the biomolecular quenching constant, and τ0 is the average lifetime of the fluorophore. 1 F0/F=1+Ksv[Q]=1+Kqτ0[Q]
The parameter n obtained from the fit is treated as an apparent slope/exponent (heterogeneous populations and partial fluorophore accessibility) and is not interpreted as the literal number of binding sites. 2 log(F0−F)/F=logKb+nlog[Q]
The Van’t Hoff equation was used to calculate the various thermodynamic interaction parameters. Equation was implemented to calculate the free energy change. 3 lnKb=−ΔH^°/RT+ΔS^°/R 4 ΔG^°=ΔH^°−TΔS^°=−RTlnKb

human amylin (hIAPP) [2] = biological target: T1, human amylin (hIAPP); assay: Dynamic light scattering (DLS) assay of amylin aggregation; assay type: biochemical; conditions: compound 10 μM, amylin 15 μM, 36 h incubation, 3 trials; read-out: DLS inhibition % (mean ± SEM)
Procedure: A stock solution of amylin (1 mM) (purchased from Bachem USA), peptide sequence: […] amide (with disulfide bond between Cys2 and Cys7), was prepared in 100% hexafluoroisopropyl alcohol (HFIP) (purchased from Sigma-Aldrich) and stored at −20 °C. , Aliquots of amylin peptide were filtered through a 0.22 μm filter from the stock solution and freeze-dried. For kinetic experiments, 15 μM of amylin was prepared in 50 mM Tris-HCl buffer (pH 7.4), as investigated in previous studies by Chaari et al., , Samples of amylin were prepared in the presence or absence of inhibitors. Each compound was dissolved in DMSO and further diluted with the buffer used to solubilize the amylin. The final mixture contained 15 μM amylin, 10 μM of the test compound, 2% DMSO or 15 μM amylin, and 2% DMSO without the compound (negative control). Also 15 μM amylin, 10 μM of oleuropein aglycone and 2% DMSO was used as a positive control. The prepared solutions were incubated under physiological conditions (pH 7.4 and 37 °C) for amylin aggregation. Samples were incubated for 36 h to test for amylin aggregation, and measurements were conducted at different time points.
DLS (Zetasizer, Malvern) was used at a wavelength of 633 nm to measure the average diffusion coefficient distribution of amylin particles and the aggregation percentage. Samples were diluted 10-fold, and 50 μL was placed into a 96-well plate. The total light scattering intensity at a 90° angle was collected using a 10 s averaging acquisition time. Particle translational diffusion coefficients were calculated from autocorrelated light intensity data (usually 30–40 points) and converted to the hydrodynamic radius (R h) using the Stokes–Einstein equation. A distribution plot of intensity versus R h was calculated using the Sedfit 9.3 analysis software, and intensity-weighted mean R h values were obtained from each peak.

Aβ = test system: Aβ; set-up: method as in Panek et al.; conditions: based on ThT assay results; ref Panek et al.; read-out: IC50 of Aβ aggregation inhibition; cited from earlier work

Compound | K q (quenching constant) (human amylin (hIAPP) [1]; 25 °C) | K sv (Stern–Volmer quenching constant) (human amylin (hIAPP) [1]; 25 °C) | n (apparent slope/exponent, binding sites) (human amylin (hIAPP) [1]; 25 °C) | ΔG (human amylin (hIAPP) [1]; 25 °C) | quenching of amylin's intrinsic fluorescence (human amylin (hIAPP) [1]; 25 °C) | Kd (human amylin (hIAPP) [1]; 25 °C) [µM] | K q (quenching constant) (human amylin (hIAPP) [1]; 30 °C) | K sv (Stern–Volmer quenching constant) (human amylin (hIAPP) [1]; 30 °C) | n (apparent slope/exponent, binding sites) (human amylin (hIAPP) [1]; 30 °C) | ΔG (human amylin (hIAPP) [1]; 30 °C) | Kd (human amylin (hIAPP) [1]; 30 °C) [µM] | K q (quenching constant) (human amylin (hIAPP) [1]; 37 °C) | K sv (Stern–Volmer quenching constant) (human amylin (hIAPP) [1]; 37 °C) | n (apparent slope/exponent, binding sites) (human amylin (hIAPP) [1]; 37 °C) | ΔG (human amylin (hIAPP) [1]; 37 °C) | Kd (human amylin (hIAPP) [1]; 37 °C) [µM] | ΔH (human amylin (hIAPP) [1]) [kcal/mol] | ΔS (human amylin (hIAPP) [1]) [J/mol K] | inhibition at 10 µM (human amylin (hIAPP) [2]) [%] | IC50 (Aβ) [µM]
CC(C)(C)c1cccc(CNCC(O)CNCCC(c2ccccc2)c2ccccc2)c1 (stereo not shown) [Compound 18] | 5.80 ± 0.17 10^12 M^–1 s^–1 | 3.43 ± 0.21 10^4 M^–1 | 0.60 ± 0.12 | –5.99 ± 0.10 kJ/mol | substantial quenching | 2500 | 4.57 ± 0.11 10^12 M^–1 s^–1 | 2.70 ± 0.39 10^4 M^–1 | 0.75 ± 0.10 | –6.99 ± 0.20 kJ/mol | 769 | 3.90 ± 0.12 10^12 M^–1 s^–1 | 2.30 ± 0.18 10^4 M^–1 | 0.92 ± 0.10 | –8.38 ± 0.30 kJ/mol | 286 | 12.74 ± 1.17 | 199.00 ±14.13 | 99.2 ± 6.5 | 3.09
CC(C)(C)c1cccc(CNCC(O)CCNCCC(c2ccccc2)c2ccccc2)c1 (stereo not shown) [Compound 22] | 5.67 ± 0.16 10^12 M^–1 s^–1 | 3.35 ± 0.18 10^4 M^–1 | 0.80 ± 0.15 | –5.05 ± 0.27 kJ/mol | substantial quenching | 1000 | 3.89 ± 0.11 10^12 M^–1 s^–1 | 2.30 ± 0.27 10^4 M^–1 | 1.06 ± 0.10 | –7.19 ± 0.17 kJ/mol | 20.9 | 2.88 ± 0.12 10^12 M^–1 s^–1 | 1.70 ± 0.13 10^4 M^–1 | 1.15 ± 0.15 | –10.23 ± 0.41 kJ/mol | 10.7 | 29.637 ± 1.08 | 433.00 ± 9.13 | 99.2 ± 6.8 | 1.22
